Source: patent US8158850B2, “Method to enhance yield and purity of hybrid crops” (priority 2007, dated 2012)
Values joined by “and” are separate entries in the source; they are usually repeats but may differ in a detail not shown here. Equal entries are not always repeated.

Tests used:
Format in all cases: in vivo, corn (Zea mays)
[1] = test system: hybrid seed production field, GHS1 or GHS2 female parent with MON88017 or nk603 male parent; test: Yield of the hybrid seed harvested from female rows of glyphosate-treated GHS fields; conditions: for average yield of hybrid seed: GHS1 or GHS2 female, glyphosate V8 and V10 at 22 oz/ac, CMS-nk603 comparator yield 29.05 kg; for Average Wt (kg), yield of the hybrid seed: glyphosate treated V8-V10; for Total wt (KG), yield of the hybrid seed: glyphosate treated V8-V10 (22 oz/ac), seed harvested from female rows
Experimental: The yield of hybrid seed is important for maintaining profitability in hybrid seed production systems. […] GHS1 and GHS2 are used as the female parent in a hybrid seed production field with MON88017 or nk603 as the male parent. The GHS fields were treated with glyphosate (V8 and V10 at 22 oz/ac) and the seed harvested from the female rows. […] The average yield is 29.72 kilograms (kg) and 33.39 kg, respectively compared to the CMS-nk603 yield of 29.05 kg.

[2] = test system: transgenic corn event GHS1 (LH198 germplasm crossed to LH287); test: Percent anther extrusion (AE %) at silk emergence after glyphosate treatment, field split plot test; conditions: Event GHS-1
Excerpt: (§1) Corn plants transformed with the DNA construct are produced and unique events that have the desired glyphosate tolerance phenotype are selected by treatment with glyphosate a various growth stages and at various rates of glyphosate. Optimal tassel and anther sensitivity to glyphosate can be determined by treatment with an effective dose of glyphosate during corn plant growth and then measuring the pollen shed or anther extrusion. Rapidly maturing corn inbred lines may have early tassel development and glyphosate treatments and rates can be adjusted as needed to produce male sterility in these inbred lines. Transgenic events for the glyphosate hybrid system were designated as event GHS1, GHS2 and GHS3, and selected by various glyphosate treatments to determine the rates and timing of glyphosate that provide the desired level of male sterility as measured by percent anther extrusion. Glyphosate was applied to a field containing the events using the following parameters: • Nozzle: Tee Jet Air Induction (AI) 110015-VS broadcast (green plus green adaptor) spaced on 30″ centers • GPA: 10-12 gallons per acre (GPA) • PSI: 30-35 pounds per square inch • Speed: 2-2.5 MPH • Nozzle Height: 16-18″ above “cup” of the whorl • Useful Conversions:
(§2) • Roundup Ultra®=3 lb acid equivalent (ae)/gal or 32 oz=0.75 lb ae/[…] • Roundup WeatherMax®—22 oz/acre=0.75 lb ae/acre • Nozzle calibration: Determine GPM (gallon per minute) output—Select nozzles and set PSI as specified above. Insure screens are all the same style and size. Collect output (30 sec minimum) of every nozzle at engine operating RPM equivalent to field conditions. Replicate 3 times for consistency and replace any nozzle with greater than +5% variation compared to other nozzles. Repeat until all nozzles are consistent. • Tractor speed—Determine sprayer speed in mph at above spray RPM. Measure off known distance (i.e. 100′) and measure 3 times for consistency. • Calibration of application equipment—The following formula was used to calculate spray output in GPA: GPA=5940×GPM (per nozzle), MPH×W; wherein W=Nozzle spacing (in inches) for broadcast spraying.
(§3) Transgenic events GHS1, GHS2, and GHS3 were treated with one or two applications of glyphosate (Roundup WeatherMax®) over the corn development stages V8-V12 (vegetative 8 leaf—vegetative 12 leaf). These development stages also correlate with pollen development in most inbred corn varieties. In this example, the transgenic events are in an LH198 germplasm crossed to LH287. The fertility score is a measure of the percent risk of anther extrusion (AE) observed at the time of silk emergence from the corn ear. The three events and a LH198DMSRR2 control (CMS germplasm with glyphosate tolerance) were treated with six glyphosate treatments (Table 4). The glyphosate treatments are single applications of 0.75 lb ae/ac at V8 stage (Trt 1), 0.75 lb ae/ac at V10 stage (Trt 2) and 0.54 lb ae/ac at V12 stage (Trt 3), and double applications of 0.75 lb ae/ac at V8 followed by 0.54 lb ae/ac at V12 (Trt 4), 0.75 lb ae/ac at V10 followed by 0.54 lb ae/ac at V12 (Trt 5), and 0.75 lb ae/ac at V8 followed by 0.75 lb ae/ac at V10 (Trt 6). The test was set up as a split plot design with 2 row plots and the glyphosate treatments applied in strips over all of the replications. FIG. 1 illustrates AE % as averaged across all spray treatments across each test plot and event.

[3] = test system: LH198DMSRR2 control (CMS germplasm with glyphosate tolerance); test: as above
Excerpt: as §1, §2, §3

[4] = test system: transgenic corn event GHS2 (LH198 germplasm crossed to LH287); test: as above; conditions: Event GHS-2
Excerpt: as §1, §2, §3

[5] = test system: transgenic corn event GHS3 (LH198 germplasm crossed to LH287); test: as above; conditions: Event GHS-3
Excerpt: as §1, §2, §3

[6] = Trt 4: 0.75 lb ae/ac at V8 followed by 0.54 lb ae/ac at V12
[7] = Trt 5: 0.75 lb ae/ac at V10 followed by 0.54 lb ae/ac at V12
[8] = Trt 6: 0.75 lb ae/ac at V8 followed by 0.75 lb ae/ac at V10

## O=C(O)CNCP(=O)(O)O [glyphosate, n-phosphonomethylglycine]
[1]; MON88017 male
  average yield of hybrid seed: 29.72 kg
[1]; nk603 male
  average yield of hybrid seed: 33.39 kg
[1]; female GHS1, average over MON88017 and NK603 male parents
  Average Wt (kg), yield of the hybrid seed: 29.72 kg
[1]; female GHS1, male MON88017
  Total wt (KG), yield of the hybrid seed: 25.9 kg and 31.5 kg
[1]; female GHS1, male NK603
  Total wt (KG), yield of the hybrid seed: 32.16 kg and 29.35 kg
[1]; female GHS2, average over MON88017 and NK603 male parents
  Average Wt (kg), yield of the hybrid seed: 33.39 kg
[1]; female GHS2, male MON88017
  Total wt (KG), yield of the hybrid seed: 27.5 kg and 35.74 kg
[1]; female GHS2, male NK603
  Total wt (KG), yield of the hybrid seed: 38.67 kg and 31.66 kg
[2]; Trt 2: 0.75 lb ae/ac at V10
  AE (%): 0.0%
[2]; Trt 3: 0.54 lb ae/ac at V12
  AE (%): ~12.1%
[2]; [6]
  AE (%): 0.0%
[2]; [7]
  AE (%): 0.0%
[2]; [8]
  AE (%): 0.0%
[3]; Trt 1: 0.75 lb ae/ac at V8
  AE (%): 0.1%
[3]; Trt 2: 0.75 lb ae/ac at V10
  AE (%): 0.1%
[3]; Trt 3: 0.54 lb ae/ac at V12
  AE (%): 0.1%
[3]; [6]
  AE (%): ~0.3%
[3]; [7]
  AE (%): ~0.3%
[3]; [8]
  AE (%): 0.0%
[4]; Trt 1: 0.75 lb ae/ac at V8
  AE (%): 0.4%
[4]; Trt 2: 0.75 lb ae/ac at V10
  AE (%): 0.0%
[4]; Trt 3: 0.54 lb ae/ac at V12
  AE (%): ~3.0%
[4]; [6]
  AE (%): 0.0%
[4]; [7]
  AE (%): 0.0%
[4]; [8]
  AE (%): 0.0%
[5]; Trt 1: 0.75 lb ae/ac at V8
  AE (%): ~5.9%
[5]; Trt 2: 0.75 lb ae/ac at V10
  AE (%): 0.1%
[5]; [6]
  AE (%): 0.0%
[5]; [7]
  AE (%): 0.0%
[5]; [8]
  AE (%): 0.0%
